Experimental data as given in PMC7827406, “Structure–Activity Relationship (SAR) Study of Spautin-1 to Entail the Discovery of Novel NEK4 Inhibitors” (International Journal of Molecular Sciences, 2021).
Like-named read-outs stand apart in the source and are kept apart here.

Key:
Experiment in all cases: biochemical
Set-up in all cases: Eurofins KinaseProfiler full panel at Km ATP, residual kinase activity (%) relative to DMSO
CK2(h) = biological target: T1, CK2(h) (Homo sapiens, UniProt P68400)
T1 construct: gene CSNK2A1
Procedure, shortened: (§1)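 Compounds screened at 10 µM in radiometric kinase activity assays at Km ATP, reported as remaining kinase activity (%). A KINOMEscan competition-binding screen at 10 µM measured DNA-tagged kinase retained on immobilized active-site ligand by qPCR.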

PDHK2(h) = biological target: T2, PDHK2(h) (Homo sapiens, UniProt Q15119)
T2 construct: gene PDK2
Procedure, shortened: as §1

NEK1(h) = biological target: T3, NEK1(h) (Homo sapiens, UniProt Q96PY6)
T3 sequence (Q96PY6 1-1258): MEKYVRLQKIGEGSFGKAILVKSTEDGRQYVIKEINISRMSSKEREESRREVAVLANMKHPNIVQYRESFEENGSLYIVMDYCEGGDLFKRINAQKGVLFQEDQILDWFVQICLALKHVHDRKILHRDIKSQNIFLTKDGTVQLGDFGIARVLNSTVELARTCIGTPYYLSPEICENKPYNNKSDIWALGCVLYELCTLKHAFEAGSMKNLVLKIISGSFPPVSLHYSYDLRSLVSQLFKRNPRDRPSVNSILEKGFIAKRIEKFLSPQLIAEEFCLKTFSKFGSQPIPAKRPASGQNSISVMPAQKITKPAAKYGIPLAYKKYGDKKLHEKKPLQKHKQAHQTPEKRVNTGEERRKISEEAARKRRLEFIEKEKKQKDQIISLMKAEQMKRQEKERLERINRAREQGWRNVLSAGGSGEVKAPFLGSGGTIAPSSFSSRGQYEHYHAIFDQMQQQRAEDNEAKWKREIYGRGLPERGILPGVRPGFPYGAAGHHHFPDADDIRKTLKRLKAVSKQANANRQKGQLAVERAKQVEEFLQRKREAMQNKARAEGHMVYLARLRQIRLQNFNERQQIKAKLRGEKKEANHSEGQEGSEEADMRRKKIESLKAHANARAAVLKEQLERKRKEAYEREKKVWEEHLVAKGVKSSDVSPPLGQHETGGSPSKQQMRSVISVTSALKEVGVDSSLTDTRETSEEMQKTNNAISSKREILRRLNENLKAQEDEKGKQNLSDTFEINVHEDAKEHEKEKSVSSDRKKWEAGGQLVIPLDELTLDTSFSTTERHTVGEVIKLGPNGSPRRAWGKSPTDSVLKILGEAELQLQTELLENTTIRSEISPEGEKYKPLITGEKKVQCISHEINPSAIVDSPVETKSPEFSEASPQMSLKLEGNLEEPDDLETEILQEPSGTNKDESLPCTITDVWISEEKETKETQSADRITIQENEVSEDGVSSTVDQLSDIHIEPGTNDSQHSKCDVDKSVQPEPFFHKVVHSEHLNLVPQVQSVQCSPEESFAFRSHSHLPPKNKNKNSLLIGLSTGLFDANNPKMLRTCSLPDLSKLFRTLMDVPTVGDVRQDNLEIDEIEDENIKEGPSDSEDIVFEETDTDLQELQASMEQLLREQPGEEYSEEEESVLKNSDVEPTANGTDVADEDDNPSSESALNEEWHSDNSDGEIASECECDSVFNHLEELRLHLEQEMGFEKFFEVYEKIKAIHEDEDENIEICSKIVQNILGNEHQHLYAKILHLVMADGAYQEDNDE
Procedure, shortened: as §1

DYRK1B(h) = DYRK1B(h) (Homo sapiens, UniProt Q9Y463)
Procedure, shortened: as §1

EphA4(h) = EphA4(h) (Homo sapiens, UniProt P54764)
Procedure, shortened: as §1

PAR-1Bα(h) = biological target: T4, PAR-1Bα(h) (Homo sapiens, UniProt Q7KZI7)
T4 construct: gene MARK2
Procedure, shortened: as §1

cKit(D816V)(h) = biological target: T5, cKit(D816V)(h) (Homo sapiens, UniProt P10721, D816V)
T5 construct: gene KIT
Procedure, shortened: as §1

CDK3/cyclinE(h) = CDK3/cyclinE(h) (Homo sapiens, UniProt Q00526)
Procedure, shortened: as §1

PDGFRβ(h) = biological target: T6, PDGFRβ(h) (Homo sapiens, UniProt P09619)
T6 construct: gene PDGFRB
Procedure, shortened: as §1

HPK1(h) = biological target: T7, HPK1(h) (Homo sapiens, UniProt Q92918)
T7 construct: gene MAP4K1
Procedure, shortened: as §1

[1] = read-out: Residual activity (%) Spautin-1 5aa
[2] = read-out: Residual activity (%) 5as
[3] = read-out: Residual activity (%) 5at
[4] = read-out: Residual activity (%) 5ay

Chain of DYRK1B(h) (Q9Y463 whole entry): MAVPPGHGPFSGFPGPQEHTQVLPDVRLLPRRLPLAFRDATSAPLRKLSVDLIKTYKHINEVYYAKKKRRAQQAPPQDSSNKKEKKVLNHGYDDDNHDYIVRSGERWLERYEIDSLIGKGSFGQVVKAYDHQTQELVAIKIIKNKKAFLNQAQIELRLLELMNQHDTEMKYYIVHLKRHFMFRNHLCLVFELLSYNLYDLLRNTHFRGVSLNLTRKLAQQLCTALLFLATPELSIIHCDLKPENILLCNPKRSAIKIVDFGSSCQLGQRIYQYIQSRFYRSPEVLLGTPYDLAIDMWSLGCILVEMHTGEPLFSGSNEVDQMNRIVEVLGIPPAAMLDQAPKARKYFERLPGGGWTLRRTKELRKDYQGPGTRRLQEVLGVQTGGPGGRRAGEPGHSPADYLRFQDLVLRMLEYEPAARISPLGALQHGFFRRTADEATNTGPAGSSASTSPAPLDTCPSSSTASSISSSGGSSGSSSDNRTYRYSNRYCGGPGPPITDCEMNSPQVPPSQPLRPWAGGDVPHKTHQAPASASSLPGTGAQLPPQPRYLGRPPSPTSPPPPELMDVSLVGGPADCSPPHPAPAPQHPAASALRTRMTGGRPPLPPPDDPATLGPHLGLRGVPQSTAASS
Chain of CDK3/cyclinE(h) (Q00526 whole entry): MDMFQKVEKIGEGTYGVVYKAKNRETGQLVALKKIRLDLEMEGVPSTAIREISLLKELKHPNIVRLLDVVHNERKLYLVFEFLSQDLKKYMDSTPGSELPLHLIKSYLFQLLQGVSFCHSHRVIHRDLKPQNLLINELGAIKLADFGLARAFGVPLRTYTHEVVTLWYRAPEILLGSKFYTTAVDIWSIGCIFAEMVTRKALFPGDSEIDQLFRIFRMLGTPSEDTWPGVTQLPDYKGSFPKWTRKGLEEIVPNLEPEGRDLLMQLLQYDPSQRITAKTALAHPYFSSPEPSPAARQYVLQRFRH
Chain of CDK3/cyclinE(h) (P24864 whole entry partner): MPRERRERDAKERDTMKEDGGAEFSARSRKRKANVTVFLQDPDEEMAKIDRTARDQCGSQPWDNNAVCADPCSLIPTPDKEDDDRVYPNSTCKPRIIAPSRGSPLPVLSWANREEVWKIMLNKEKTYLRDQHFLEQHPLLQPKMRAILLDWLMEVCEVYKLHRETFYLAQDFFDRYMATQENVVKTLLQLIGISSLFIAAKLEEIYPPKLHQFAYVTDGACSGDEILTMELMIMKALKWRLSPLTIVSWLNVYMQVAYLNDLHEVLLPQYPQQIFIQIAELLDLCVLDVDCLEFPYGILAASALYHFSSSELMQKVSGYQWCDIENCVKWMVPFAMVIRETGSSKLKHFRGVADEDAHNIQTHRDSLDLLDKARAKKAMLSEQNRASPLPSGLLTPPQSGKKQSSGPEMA
Chain of EphA4(h) (P54764 whole entry): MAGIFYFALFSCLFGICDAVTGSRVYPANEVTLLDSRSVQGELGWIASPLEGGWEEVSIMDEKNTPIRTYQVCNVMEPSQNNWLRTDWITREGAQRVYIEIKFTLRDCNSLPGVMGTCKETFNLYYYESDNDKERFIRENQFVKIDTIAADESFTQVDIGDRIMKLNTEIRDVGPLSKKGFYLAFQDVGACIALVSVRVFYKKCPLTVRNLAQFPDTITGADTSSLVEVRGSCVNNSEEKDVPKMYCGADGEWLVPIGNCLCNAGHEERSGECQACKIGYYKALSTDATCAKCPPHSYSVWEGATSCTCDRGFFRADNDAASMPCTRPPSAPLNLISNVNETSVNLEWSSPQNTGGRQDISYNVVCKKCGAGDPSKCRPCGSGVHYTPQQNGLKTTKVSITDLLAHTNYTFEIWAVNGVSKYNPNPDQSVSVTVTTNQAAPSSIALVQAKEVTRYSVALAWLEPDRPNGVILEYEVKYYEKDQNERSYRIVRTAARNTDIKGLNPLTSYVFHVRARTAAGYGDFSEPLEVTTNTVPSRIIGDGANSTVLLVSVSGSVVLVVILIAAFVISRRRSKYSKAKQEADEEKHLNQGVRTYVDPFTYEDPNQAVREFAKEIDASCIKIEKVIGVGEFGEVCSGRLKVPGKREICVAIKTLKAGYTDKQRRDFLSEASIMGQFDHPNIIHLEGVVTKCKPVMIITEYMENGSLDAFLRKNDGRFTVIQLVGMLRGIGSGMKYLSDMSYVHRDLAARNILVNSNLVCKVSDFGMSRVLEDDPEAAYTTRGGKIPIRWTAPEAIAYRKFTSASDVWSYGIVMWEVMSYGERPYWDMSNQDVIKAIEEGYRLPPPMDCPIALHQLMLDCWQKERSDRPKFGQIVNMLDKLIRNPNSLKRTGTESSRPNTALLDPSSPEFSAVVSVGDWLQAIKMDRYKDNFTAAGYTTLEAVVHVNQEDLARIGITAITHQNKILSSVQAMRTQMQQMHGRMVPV
T1 sequence (P68400 whole entry): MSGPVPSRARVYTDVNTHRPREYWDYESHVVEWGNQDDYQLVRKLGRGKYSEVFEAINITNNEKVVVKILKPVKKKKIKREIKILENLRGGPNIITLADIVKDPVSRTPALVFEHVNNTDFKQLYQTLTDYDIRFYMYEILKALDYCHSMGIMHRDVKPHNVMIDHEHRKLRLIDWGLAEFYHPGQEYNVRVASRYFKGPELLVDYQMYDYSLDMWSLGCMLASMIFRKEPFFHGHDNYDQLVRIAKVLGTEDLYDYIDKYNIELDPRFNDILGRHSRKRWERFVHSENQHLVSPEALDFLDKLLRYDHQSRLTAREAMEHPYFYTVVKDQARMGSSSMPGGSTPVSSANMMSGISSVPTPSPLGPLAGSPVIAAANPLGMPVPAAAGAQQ
T1 sequence (P67870 whole entry partner): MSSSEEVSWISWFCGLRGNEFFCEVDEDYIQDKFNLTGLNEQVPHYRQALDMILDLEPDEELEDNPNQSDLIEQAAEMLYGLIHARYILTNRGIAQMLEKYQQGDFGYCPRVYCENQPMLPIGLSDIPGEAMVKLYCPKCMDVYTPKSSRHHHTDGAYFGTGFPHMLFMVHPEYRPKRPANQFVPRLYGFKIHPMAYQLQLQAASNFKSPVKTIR
T5 sequence (P10721 whole entry D816V): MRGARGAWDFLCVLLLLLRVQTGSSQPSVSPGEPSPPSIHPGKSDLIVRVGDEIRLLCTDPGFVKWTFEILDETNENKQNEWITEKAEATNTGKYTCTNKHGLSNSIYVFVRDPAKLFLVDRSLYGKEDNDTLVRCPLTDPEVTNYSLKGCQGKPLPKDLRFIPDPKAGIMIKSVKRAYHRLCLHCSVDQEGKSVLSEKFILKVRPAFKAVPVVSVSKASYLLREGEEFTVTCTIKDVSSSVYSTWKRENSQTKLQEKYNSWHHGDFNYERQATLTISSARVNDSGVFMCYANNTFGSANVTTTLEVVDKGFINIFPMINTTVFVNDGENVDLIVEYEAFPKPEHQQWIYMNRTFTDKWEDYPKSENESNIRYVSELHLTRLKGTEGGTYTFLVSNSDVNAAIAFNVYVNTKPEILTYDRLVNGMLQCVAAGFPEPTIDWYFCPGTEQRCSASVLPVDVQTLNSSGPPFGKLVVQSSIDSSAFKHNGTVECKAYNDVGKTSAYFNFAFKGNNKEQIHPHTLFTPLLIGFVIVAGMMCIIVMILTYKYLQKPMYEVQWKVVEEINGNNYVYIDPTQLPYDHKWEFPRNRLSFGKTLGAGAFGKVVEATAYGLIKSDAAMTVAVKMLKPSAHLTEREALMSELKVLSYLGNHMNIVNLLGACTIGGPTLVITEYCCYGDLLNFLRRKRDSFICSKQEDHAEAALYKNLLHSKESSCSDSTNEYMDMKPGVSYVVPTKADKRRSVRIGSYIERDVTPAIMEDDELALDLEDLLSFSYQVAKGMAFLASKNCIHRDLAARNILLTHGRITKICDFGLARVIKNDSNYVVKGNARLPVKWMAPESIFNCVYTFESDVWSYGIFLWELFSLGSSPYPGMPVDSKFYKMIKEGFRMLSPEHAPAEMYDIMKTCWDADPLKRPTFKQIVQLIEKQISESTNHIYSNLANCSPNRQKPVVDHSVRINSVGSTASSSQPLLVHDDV
T7 sequence (Q92918 whole entry): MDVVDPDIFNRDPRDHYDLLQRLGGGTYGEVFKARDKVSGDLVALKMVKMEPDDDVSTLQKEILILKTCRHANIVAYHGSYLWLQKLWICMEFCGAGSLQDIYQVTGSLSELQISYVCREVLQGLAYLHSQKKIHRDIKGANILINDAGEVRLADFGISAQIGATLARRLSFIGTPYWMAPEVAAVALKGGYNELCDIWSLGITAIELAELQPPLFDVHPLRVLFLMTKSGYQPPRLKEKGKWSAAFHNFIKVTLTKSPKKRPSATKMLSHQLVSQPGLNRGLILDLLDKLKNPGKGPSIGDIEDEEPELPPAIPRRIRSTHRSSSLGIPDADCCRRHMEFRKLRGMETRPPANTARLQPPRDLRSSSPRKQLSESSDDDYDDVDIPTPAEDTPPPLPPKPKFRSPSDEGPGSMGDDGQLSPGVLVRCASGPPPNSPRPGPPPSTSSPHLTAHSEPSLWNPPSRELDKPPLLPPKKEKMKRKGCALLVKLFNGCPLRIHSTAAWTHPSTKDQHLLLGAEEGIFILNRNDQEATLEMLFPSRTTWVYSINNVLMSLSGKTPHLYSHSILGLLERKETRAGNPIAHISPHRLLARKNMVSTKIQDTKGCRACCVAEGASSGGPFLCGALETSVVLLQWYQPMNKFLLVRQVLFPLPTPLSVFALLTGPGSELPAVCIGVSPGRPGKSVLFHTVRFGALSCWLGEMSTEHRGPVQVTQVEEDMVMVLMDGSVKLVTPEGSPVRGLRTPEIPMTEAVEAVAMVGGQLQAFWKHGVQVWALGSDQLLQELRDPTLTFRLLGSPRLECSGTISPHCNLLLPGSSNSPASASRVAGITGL

Which remaining activity at 10 µM (CK2(h); [1]) does the source give for `Fc1ccc(CNc2ncnc3ccc(F)cc23)cc1` [5aa, 6-Fluoro-N-(4-fluorobenzyl)-4-Quinazolinamine] here?
Its remaining activity at 10 µM is 83%.

What about the remaining activity at 10 µM (PDHK2(h); [1]) of the same molecule?
The remaining activity at 10 µM was 103%.

And the remaining activity at 10 µM (NEK1(h); [1])?
Its remaining activity at 10 µM is 81%.

What about the remaining activity at 10 µM (DYRK1B(h); [1]) of the same molecule?
Its remaining activity at 10 µM is 88%.

And the remaining activity at 10 µM (EphA4(h); [1])?
The remaining activity at 10 µM was 89%.

And the remaining activity at 10 µM (PAR-1Bα(h); [1])?
Its remaining activity at 10 µM is 84%.

What about the remaining activity at 10 µM (cKit(D816V)(h); [1]) of the same molecule?
Its remaining activity at 10 µM is 105%.

And the remaining activity at 10 µM (CDK3/cyclinE(h); [1])?
Its remaining activity at 10 µM is 93%.

And the remaining activity at 10 µM (PDGFRβ(h); [1])?
Its remaining activity at 10 µM is 97%.

What about the remaining activity at 10 µM (HPK1(h); [1]) of the same molecule?
Its remaining activity at 10 µM is 92%.

Which results are given for `Fc1ccc(CCNc2ncnc3ccc(F)cc23)cc1` [5as, 6-Fluoro-N-[2-(4-Fluorophenyl)Ethyl]-4-Quinazolinamine]?
remaining activity at 10 µM (CK2(h); [2]): 78%; remaining activity at 10 µM (PDHK2(h); [2]): 93%; remaining activity at 10 µM (NEK1(h); [2]): 97%; remaining activity at 10 µM (DYRK1B(h); [2]): 82%; remaining activity at 10 µM (EphA4(h); [2]): 83%; remaining activity at 10 µM (PAR-1Bα(h); [2]): 86%; remaining activity at 10 µM (cKit(D816V)(h); [2]): 111%; remaining activity at 10 µM (CDK3/cyclinE(h); [2]): 105%; remaining activity at 10 µM (PDGFRβ(h); [2]): 104%; remaining activity at 10 µM (HPK1(h); [2]): 98%

Which results are given for `Fc1ccc2ncnc(NCCc3ccc(Cl)cc3)c2c1` [5at, N-[2-(4-Chlorophenyl)Ethyl]-6-Fluoro-4-Quinazolinamine]?
remaining activity at 10 µM (CK2(h); [3]): 87%; remaining activity at 10 µM (PDHK2(h); [3]): 87%; remaining activity at 10 µM (NEK1(h); [3]): 70%; remaining activity at 10 µM (DYRK1B(h); [3]): 92%; remaining activity at 10 µM (EphA4(h); [3]): 80%; remaining activity at 10 µM (PAR-1Bα(h); [3]): 101%; remaining activity at 10 µM (cKit(D816V)(h); [3]): 98%; remaining activity at 10 µM (CDK3/cyclinE(h); [3]): 107%; remaining activity at 10 µM (PDGFRβ(h); [3]): 109%; remaining activity at 10 µM (HPK1(h); [3]): 96%

`COc1ccc2ncnc(Nc3cccc(F)c3)c2c1` [5ay, N-(3-Fluorophenyl)-6-Methoxy-4-Quinazolinamine] was tested. Which remaining activity at 10 µM (CK2(h); [4]) did it give?
Its remaining activity at 10 µM is 75%.

And the remaining activity at 10 µM (PDHK2(h); [4])?
Its remaining activity at 10 µM is 94%.

What about the remaining activity at 10 µM (NEK1(h); [4]) of the same molecule?
Its remaining activity at 10 µM is 60%.

What about the remaining activity at 10 µM (DYRK1B(h); [4]) of the same molecule?
The remaining activity at 10 µM was 53%.

And the remaining activity at 10 µM (EphA4(h); [4])?
Its remaining activity at 10 µM is 86%.

What about the remaining activity at 10 µM (PAR-1Bα(h); [4]) of the same molecule?
The remaining activity at 10 µM was 83%.

And the remaining activity at 10 µM (cKit(D816V)(h); [4])?
Its remaining activity at 10 µM is 125%.

What about the remaining activity at 10 µM (CDK3/cyclinE(h); [4]) of the same molecule?
The remaining activity at 10 µM was 101%.

What about the remaining activity at 10 µM (PDGFRβ(h); [4]) of the same molecule?
The remaining activity at 10 µM was 113%.

And the remaining activity at 10 µM (HPK1(h); [4])?
Its remaining activity at 10 µM is 92%.
